Data published in ChEMBL document CHEMBL1143598, “1-Methyl-3H-pyrazolo[1,2-a]benzo[1,2,3,4]tetrazin-3-ones. Design, synthesis, and biological activity of new antitumor agents” (2005).

Experiments:
[1] = Concentration required to inhibit total cell growth of human tumor cell lines (54 cells giving positive results out of 55 cells); Range = 5.72-4.10; assay type: functional; conditions: read-out: pTGI50 (converted)
[2] = Concentration required to inhibit cell growth of human tumor cell lines (55 cells giving positive results out of 55 cells); Range = 6.28-4.59; assay type: functional
[3] = Concentration required to inhibit cell death of human tumor cell lines (50 cells giving positive results out of 55 cells); Range = 5.27-4.1; assay type: functional; conditions: read-out: pLC50 (the source's name) (converted)
[4] = Concentration required to inhibit cell death of human tumor cell lines (40 cells giving positive results out of 55 cells); Range = 4.26-4.06; assay type: functional; conditions: read-out: pLC50 (the source's name) (converted)
[5] = Concentration required to inhibit cell growth of human tumor cell lines (53 cells giving positive results out of 55 cells); Range is 5.68-4.53; assay type: functional
[6] = Concentration required to inhibit total cell growth of human tumor cell lines (50 cells giving positive results out of 55 cells); Range = 5.23-4.07; assay type: functional; conditions: read-out: pTGI50 (converted)
[7] = Concentration required to inhibit cell death of human tumor cell lines (48 cells giving positive results out of 55 cells); Range = 5.19-4.05; conditions: read-out: pLC50 (the source's name) (converted)
[8] = Concentration required to inhibit total cell growth of human tumor cell lines (50 cells giving positive results out of 55 cells); Range = 5.45-4.00; assay type: functional; conditions: read-out: pTGI50 (converted)
[9] = Concentration required to inhibit cell growth of human tumor cell lines (54 cells giving positive results out of 55 cells); Range = 5.75-4.50; assay type: functional
[10] = Concentration required to inhibit total cell growth of human tumor cell lines (51 cells giving positive results out of 54 cells); Range = 6.14-4.29; assay type: functional; conditions: read-out: pTGI50 (converted)
[11] = Concentration required to inhibit cell growth of human tumor cell lines (54 cells giving positive results out of 54 cells); Range = 6.76-4.46; assay type: functional
[12] = Concentration required to inhibit cell death of human tumor cell lines (46 cells giving positive results out of 54 cells); Range = 5.36-4.01; assay type: functional; conditions: read-out: pLC50 (the source's name) (converted)
[13] = Concentration required to inhibit cell growth of human tumor cell lines (53 cells giving positive results out of 54 cells); Range = 6.05-4.50; assay type: functional
[14] = Concentration required to inhibit cell death of human tumor cell lines (45 cells giving positive results out of 54 cells); Range = 5.25-4.05; assay type: functional; conditions: read-out: pLC50 (the source's name) (converted)
[15] = Concentration required to inhibit total cell growth of human tumor cell lines (52 cells giving positive results out of 54 cells); Range = 5.53-4.02; assay type: functional; conditions: read-out: pTGI50 (converted)
[16] = Concentration required to inhibit cell growth of human tumor cell lines (53 cells giving positive results out of 53 cells); Range = 5.85-4.50; assay type: functional
[17] = Concentration required to inhibit cell death of human tumor cell lines (49 cells giving positive results out of 53 cells); Range = 5.25-4.11; assay type: functional; conditions: read-out: pLC50 (the source's name) (converted)
[18] = Concentration required to inhibit total cell growth of human tumor cell lines (52 cells giving positive results out of 53 cells; Range = 5.53-4.07; assay type: functional; conditions: read-out: pTGI50 (converted)
[19] = Concentration required to inhibit total cell growth of human tumor cell lines (52 cells giving positive results out of 53 cell lines); Range = 5.47-4.34; assay type: functional; conditions: read-out: pTGI50 (converted)
[20] = Concentration required to inhibit cell growth of human tumor cell lines (51 cells giving positive results out of 53 cells); Range = 5.75-4.67; assay type: functional
[21] = Concentration required to inhibit cell death of human tumor cell lines (50 cells giving positive results out of 53 cells); Range = 5.21-4.01; assay type: functional; conditions: read-out: pLC50 (the source's name) (converted)

Cc1cc(=O)n2nnc3cc(Cl)ccc3n12
GI50 [1]: 1910 nM
GI50 [2]: 525 nM
CC50 [3]: 5370 nM

Cc1cc(=O)n2nnc3ccccc3n12
CC50 [4]: 55000 nM
GI50 [5]: 2090 nM
GI50 [6]: 5890 nM

COc1ccc2c(c1)nnn1c(=O)cc(C)n21
CC50 [7]: 6460 nM
GI50 [8]: 3550 nM
GI50 [9]: 1780 nM

Cc1ccc2nnn3c(=O)cc(C)n3c2c1
GI50 [10]: 724 nM
GI50 [11]: 174 nM
CC50 [12]: 4370 nM

Cc1cc(=O)n2nnc3ccc(Cl)cc3n12
GI50 [13]: 891 nM
CC50 [14]: 5620 nM
GI50 [15]: 2950 nM

Cc1ccc2c(c1)nnn1c(=O)cc(C)n21
GI50 [16]: 1410 nM
CC50 [17]: 5620 nM
GI50 [18]: 2950 nM

Cc1cc(=O)n2nnc3cc(F)ccc3n12
GI50 [19]: 3390 nM
GI50 [20]: 1780 nM
CC50 [21]: 6170 nM
